The target in experiment [1] is T1, CFTR in F508del/F508del primary CF hBE cells (Homo sapiens, UniProt P13569, DEL508-508).
T1 construct: Primary cystic fibrosis human bronchial epithelial (CF hBE) cells were expanded and cultured; endogenous in cells; host or cells: primary CF human bronchial epithelial cells, genotype F508del/F508del
Description: Ussing chamber electrophysiology assay of CFTR potentiation in F508del/F508del CF bronchial epithelial cells (27° C.). Type of experiment: cell-based. In outline:
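Short-circuit current was recorded under zero-voltage clamp across primary CF bronchial epithelia cultured >30 days at air/liquid interface, bathed apically and basolaterally in HEPES-buffered saline. Sequential additions: amiloride (30 uM), forskolin (10 uM), compound at 4 increasing levels, CFTRinh-172 (20 uM). Responses normalised between DMSO (0%) and maximal positive-control potentiator (100%).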

For experiment [2], the target named is T2, recombinant F508del V470 CFTR in Fischer rat thyroid (FRT) cells (Homo sapiens, UniProt P13569, DEL508-508).
T2 construct: expressed in transfected cells
In words: FRT ion flux assay of F508del CFTR potentiation. Type of experiment: cell-based. Particulars: FRT cells expressing F508del V470 CFTR, forskolin 20 uM, 27° C. pre-incubation. The essentials:
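Potentiation read as YFP quench ~21 s after iodide buffer addition, as second/initial fluorescence ratio normalised between DMSO (0%) and reference potentiator (100%).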

pEC50: −log10 of the molar value.

T2 sequence (P13569 with tags, fused parts or gaps DEL508-508): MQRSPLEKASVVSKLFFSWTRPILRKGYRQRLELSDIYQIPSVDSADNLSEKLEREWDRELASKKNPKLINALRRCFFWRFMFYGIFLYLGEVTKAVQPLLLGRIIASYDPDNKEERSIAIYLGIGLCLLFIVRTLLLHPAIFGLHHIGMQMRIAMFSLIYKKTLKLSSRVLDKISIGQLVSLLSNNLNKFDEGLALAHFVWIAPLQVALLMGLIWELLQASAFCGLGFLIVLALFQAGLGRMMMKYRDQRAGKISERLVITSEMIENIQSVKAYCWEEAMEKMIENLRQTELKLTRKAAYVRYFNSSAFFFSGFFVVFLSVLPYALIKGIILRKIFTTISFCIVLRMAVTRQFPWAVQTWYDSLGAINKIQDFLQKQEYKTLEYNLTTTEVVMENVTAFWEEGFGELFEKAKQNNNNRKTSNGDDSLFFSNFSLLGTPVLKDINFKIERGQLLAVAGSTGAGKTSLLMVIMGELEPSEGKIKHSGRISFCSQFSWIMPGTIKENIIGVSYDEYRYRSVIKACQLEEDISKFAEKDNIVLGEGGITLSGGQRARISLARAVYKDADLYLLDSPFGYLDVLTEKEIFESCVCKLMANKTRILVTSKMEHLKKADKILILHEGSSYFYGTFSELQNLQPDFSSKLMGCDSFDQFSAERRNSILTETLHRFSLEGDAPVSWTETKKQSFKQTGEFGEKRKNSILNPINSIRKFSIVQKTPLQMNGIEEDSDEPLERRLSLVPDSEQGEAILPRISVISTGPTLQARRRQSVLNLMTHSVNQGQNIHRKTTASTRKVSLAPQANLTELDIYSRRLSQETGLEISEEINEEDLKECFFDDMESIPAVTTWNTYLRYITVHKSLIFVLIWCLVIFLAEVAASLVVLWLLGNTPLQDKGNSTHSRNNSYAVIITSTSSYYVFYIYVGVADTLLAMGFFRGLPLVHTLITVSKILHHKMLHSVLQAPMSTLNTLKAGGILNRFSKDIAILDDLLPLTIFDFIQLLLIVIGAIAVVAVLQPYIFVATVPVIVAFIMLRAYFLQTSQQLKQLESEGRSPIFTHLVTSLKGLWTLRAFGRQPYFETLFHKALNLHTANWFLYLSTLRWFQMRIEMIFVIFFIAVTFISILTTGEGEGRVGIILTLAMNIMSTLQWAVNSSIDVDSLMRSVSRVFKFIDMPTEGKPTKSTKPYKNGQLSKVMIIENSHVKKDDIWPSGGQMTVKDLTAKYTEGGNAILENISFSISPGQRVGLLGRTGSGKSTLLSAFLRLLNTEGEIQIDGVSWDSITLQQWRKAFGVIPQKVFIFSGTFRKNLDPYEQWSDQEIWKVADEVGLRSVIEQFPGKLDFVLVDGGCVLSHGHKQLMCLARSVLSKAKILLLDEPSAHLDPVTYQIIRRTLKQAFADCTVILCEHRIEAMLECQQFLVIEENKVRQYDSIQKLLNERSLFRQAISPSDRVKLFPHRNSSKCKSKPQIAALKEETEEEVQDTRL
T1 sequence (P13569 with tags, fused parts or gaps DEL508-508): as above

What is called pEC50 is −log10 of the EC50, conventionally taken in molar units. Take `Nc1ncnc2c1c(-c1cnc(C(F)(F)F)nc1)c(Br)n2Cc1cnn(-c2ccccc2F)c1` [Example 40, 6-bromo-7-{[1-(2-fluorophenyl)-1H-pyrazol-4-yl]methyl}-5-[2-(trifluoromethyl)pyrimidin-5-yl]-7H-pyrrolo[2,3-d]pyrimidin-4-amine]: the pEC50 in experiment [1] is 8.89; in experiment [2], 8.66.

For `CC(c1cn(-c2ccccc2F)nn1)n1cc(-c2ccc(C#N)c(F)c2)c2c(N)ncnc21` (single isomer, unassigned; enantiomer 2) [Example 116, 4-(4-Amino-7-{1-[1-(2-fluorophenyl)-1H-1,2,3-triazol-4-yl]ethyl}-7H-pyrrolo[2,3-d]pyrimidin-5-yl)-2-fluorobenzonitrile, enantiomer 2], the figures for the pEC50 in experiment [1] and in experiment [2] were 7.59 and 7.44, respectively.

As to `CC(c1cn(-c2ccc(F)cc2F)nn1)n1cc(-c2cnc(C(F)(F)F)nc2)c2c(N)ncnc21` (single isomer, unassigned; enantiomer 1) [Example 123, 7-{1-[1-(2,4-Difluorophenyl)-1H-1,2,3-triazol-4-yl]ethyl}-5-[2-(trifluoromethyl)pyrimidin-5-yl]-7H-pyrrolo[2,3-d]pyrimidin-4-amine, enantiomer 1], the negative-log EC50 (pEC50) is 7.30 in experiment [1] and 7.66 in experiment [2].

On to `CCC(c1cn(-c2ccccc2F)nn1)n1cc(-c2cnc(C(F)(F)F)nc2)c2c(N)ncnc21` (single isomer, unassigned; enantiomer 1) [Example 137, 7-{1-[1-(2-Fluorophenyl)-1H-1,2,3-triazol-4-yl]propyl}-5-[2-(trifluoromethyl)pyrimidin-5-yl]-7H-pyrrolo[2,3-d]pyrimidin-4-amine, enantiomer 1], for which the pEC50 in experiment [1] is 7.99; in experiment [2] it was 8.23.

As to `COc1ccccc1-c1cc(C(C)n2cc(-c3ccc(Cl)cc3)c3c(N)ncnc32)on1` (stereo not drawn) [Example 260, 5-(4-Chlorophenyl)-7-{1-[3-(2-methoxyphenyl)-1,2-oxazol-5-yl]ethyl}-7H-pyrrolo[2,3-d]pyrimidin-4-amine], the figures for the pEC50 in experiment [1] and in experiment [2] were 6.96 and 6.70, respectively.

For `CSc1ccc(-c2cn(C(C)c3cn(-c4ccccc4F)nn3)c3ncnc(N)c23)c(F)c1` (stereo not drawn) [Example 90, 5-[2-Fluoro-4-(methylsulfanyl)phenyl]-7-{1-[1-(2-fluorophenyl)-1H-1,2,3-triazol-4-yl]ethyl}-7H-pyrrolo[2,3-d]pyrimidin-4-amine], the pEC50 in experiment [1] was 7.46; in experiment [2], 7.34.

On to `CCC(c1cnn(-c2ccccc2F)c1)n1cc(-c2cnc(C(F)(F)F)nc2)c2c(N)ncnc21` (single isomer, unassigned; enantiomer 1) [Example 175, 7-{(1-[1-(2-Fluorophenyl)-1H-pyrazol-4-yl]propyl}-5-[2-(trifluoromethyl)pyrimidin-5-yl]-7H-pyrrolo[2,3-d]pyrimidin-4-amine, enantiomer 1], for which the values for the pEC50 in experiment [1] and in experiment [2] were 8.10 and 8.00, respectively.

For `CCC(c1cn(-c2ccc(F)c(F)c2)nn1)n1cc(-c2cnc(OC)c(F)c2)c2c(N)ncnc21` (single isomer, unassigned; enantiomer 1) [Example 157, 7-{1-[1-(3,4-Difluorophenyl)-1H-1,2,3-triazol-4-yl]propyl}-5-(5-fluoro-6-methoxypyridin-3-yl)-7H-pyrrolo[2,3-d]pyrimidin-4-amine, enantiomer 1], the pEC50 in experiment [1] is 6.62; in experiment [2], 6.36.

In the case of `COc1ncncc1-c1cn(Cc2cn(-c3ccccc3F)nn2)c2nc(C)nc(N)c12` [Example 203, 7-{[1-(2-fluorophenyl)-1H-1,2,3-triazol-4-yl]methyl}-5-(4-methoxypyrimidin-5-yl)-2-methyl-7H-pyrrolo[2,3-d]pyrimidin-4-amine], the figures for the negative-log EC50 (pEC50) in experiment [1] and in experiment [2] were 5.60 and 5.79, respectively.

As for `COc1nc(C(F)(F)F)ncc1-c1cn(Cc2cn(-c3ccccc3F)nn2)c2ncnc(N)c12` [Example 252, 7-{[1-(2-Fluorophenyl)-1H-1,2,3-triazol-4-yl]methyl}-5-[4-methoxy-2-(trifluoromethyl)pyrimidin-5-yl]-7H-pyrrolo[2,3-d]pyrimidin-4-amine], the results for the pEC50 in experiment [1] and in experiment [2] were 7.62 and 7.56, respectively.

Take `CCC(c1cn(-c2ccccc2F)nn1)n1cc(-c2cnc(N(C)C)nc2)c2c(N)ncnc21` (single isomer, unassigned; enantiomer 1) [Example 145, 5-[2-(Dimethylamino)pyrimidin-5-yl]-7-{1-[1-(2-fluorophenyl)-1H-1,2,3-triazol-4-yl]propyl}-7H-pyrrolo[2,3-d]pyrimidin-4-amine, enantiomer 1]: the negative-log EC50 (pEC50) in experiment [1] is 7.53; in experiment [2] it was 7.58.

As to `Cc1c(C(C)n2c(C#N)c(-c3cnc(C(F)(F)F)nc3)c3c(N)ncnc32)nnn1-c1ccccc1F` (single isomer, unassigned) [Example 13, 4-amino-7-(1-(1-(2-fluorophenyl)-5-methyl-1H-1,2,3-triazol-4-yl)ethyl)-5-(2-(trifluoromethyl)pyrimidin-5-yl)-7H-pyrrolo[2,3-d] pyrimidine-6-carbonitrile], the pEC50 in experiment [1] is 6.57; in experiment [2] it was 7.01.

`CC(c1cn(-c2ccccc2F)nn1)n1cc(C2CCC2)c2c(N)ncnc21` (single isomer, unassigned; enantiomer 1) [Example 294, 5-Cyclobutyl-7-{1-[1-(2-fluorophenyl)-1H-1,2,3-triazol-4-yl]ethyl}-7H-pyrrolo[2,3-d]pyrimidin-4-amine, enantiomer 1]: the values for the negative logarithm of the EC50 (pEC50) in experiment [1] and in experiment [2] were 6.72 and 6.78, respectively.

For the compound `Cc1cccc(-n2cc(C(C)n3cc(-c4ccc(Cl)cc4)c4c(N)ncnc43)nn2)c1` (stereo not drawn) [Example 208, 5-(4-Chlorophenyl)-7-{1-[1-(3-methylphenyl)-1H-1,2,3-triazol-4-yl]ethyl}-7H-pyrrolo[2,3-d]pyrimidin-4-amine], the negative logarithm of the EC50 (pEC50) in experiment [1] was 7.26; in experiment [2] it was 6.39.

With `CCC(c1cn(-c2ccccc2F)nn1)n1c(C#N)c(-c2cnc(C(F)(F)F)nc2)c2c(N)ncnc21` (single isomer, unassigned) [Example 23, 4-Amino-7-{1-[1-(2-fluorophenyl)-1H-1,2,3-triazol-4-yl]propyl}-5-[2-(trifluoromethyl)pyrimidin-5-yl]-7H-pyrrolo[2,3-d]pyrimidine-6-carbonitrile], the negative logarithm of the EC50 (pEC50) is 7.49 in experiment [1] and 7.38 in experiment [2].

As to `CC(c1cn(-c2ccccc2F)nn1)n1cc(-c2ccc(Cl)c(F)c2)c2c(N)ncnc21` (stereo not drawn) [Example 98, 5-(4-Chloro-3-fluorophenyl)-7-{1-[1-(2-fluorophenyl)-1H-1,2,3-triazol-4-yl]ethyl}-7H-pyrrolo[2,3-d]pyrimidin-4-amine], the pEC50 was 7.55 in experiment [1] and 7.39 in experiment [2].

Consider `COc1ncc(-c2c(C#N)n(C(C)c3cc(-c4ccccc4F)no3)c3ncnc(N)c23)cn1` (single isomer, unassigned) [Example 15, 4-amino-7-{1-[3-(2-fluorophenyl)-1,2-oxazol-5-yl]ethyl}-5-(2-methoxypyrimidin-5-yl)-7H-pyrrolo[2,3-d]pyrimidine-6-carbonitrile], for which the values for the negative-log EC50 (pEC50) in experiment [1] and in experiment [2] were 8.15 and 8.14, respectively.

On to `COc1ncccc1-c1cn(C(C)c2cn(-c3ccccc3F)nn2)c2ncnc(N)c12` (stereo not drawn) [Example 215, 7-{1-[1-(2-Fluorophenyl)-1H-1,2,3-triazol-4-yl]ethyl}-5-(2-methoxypyridin-3-yl)-7H-pyrrolo [2,3-d]pyrimidin-4-amine], for which the negative logarithm of the EC50 (pEC50) is 6.74 in experiment [1] and 7.10 in experiment [2].
